Data: article PMC8480901 (PLoS ONE, 2021)
Values joined by “and” are separate entries in the source; they are usually repeats but may differ in a detail not shown here. Identical values can stand only once.

Tested on: human PBMCs
Test: LPS-induced cytokine and chemokine levels in human PBMC supernatant (Luminex, ELISA)
Type: cell-based
Details: for CCl2, % reduction / CXCL1 % reduction / CXCL2 % reduction / MMP9 % reduction / CCl2, Mean / CXCL1, Mean / CXCL2, Mean / MMP9, Mean / CCl2, individual value / CXCL1, individual value / CXCL2, individual value / MMP9, individual value: LPS-stimulated PBMC supernatant; for CCl2, Mean / CXCL1, Mean / CXCL2, Mean / MMP9, Mean: sample size 2; for CCl2, individual value / CXCL1, individual value / CXCL2, individual value / MMP9, individual value: single replicate
[1] = LPS-stimulated human PBMC supernatant, 0.03 µM

For `CC[C@H]1OC(=O)[C@H](C)[C@@H](O[C@H]2C[C@@](C)(OC)[C@@H](O)[C@H](C)O2)[C@H](C)[C@@H](O[C@@H]2O[C@H](C)C[C@H](N(C)C)[C@H]2O)[C@](C)(O)C[C@@H](C)CN(C)[C@H](C)[C@@H](O)[C@]1(C)O` [Azithromycin], the “CCl2, % reduction” value (0.03 µM) was -5.55%, the “CXCL1 % reduction” value (0.03 µM) was -4.76% and the “CXCL2 % reduction” value (0.03 µM) was 2.43%. The “MMP9 % reduction” value (0.03 µM) was -1.46%, the “CCl2, Mean” value (0.03 µM) was 1334 pg/mL and the “CXCL1, Mean” value (0.03 µM) was 6234 pg/mL. The “CXCL2, Mean” value (0.03 µM) was 4935 pg/mL, the “MMP9, Mean” value (0.03 µM) was 3019 pg/mL and the “CCl2, individual value” (0.03 µM) was 1307 pg/mL and 1361 pg/mL. For the same compound, the “CXCL1, individual value” (0.03 µM) was 6199 pg/mL and 6268 pg/mL, the “CXCL2, individual value” (0.03 µM) was 5023 pg/mL and 4847 pg/mL and the “MMP9, individual value” (0.03 µM) was 3072 pg/mL and 2966 pg/mL. For the same compound, the “CCl2, % reduction” value (0.1 µM) was -0.293%, the “CXCL1 % reduction” value (0.1 µM) was -0.522% and the “CXCL2 % reduction” value (0.1 µM) was 4.49%. The “MMP9 % reduction” value (0.1 µM) was -3.72%, the “CCl2, Mean” value (0.1 µM) was 1270 pg/mL and the “CXCL1, Mean” value (0.1 µM) was 5984 pg/mL. The “CXCL2, Mean” value (0.1 µM) was 4831 pg/mL, the “MMP9, Mean” value (0.1 µM) was 3056 pg/mL and the “CCl2, individual value” (0.1 µM) was 1278 pg/mL and 1261 pg/mL. The “CXCL1, individual value” (0.1 µM) was 6035 pg/mL and 5932 pg/mL, the “CXCL2, individual value” (0.1 µM) was 4923 pg/mL and 4739 pg/mL and the “MMP9, individual value” (0.1 µM) was 3040 pg/mL and 3071 pg/mL. For the same compound, the “CCl2, % reduction” value (0.3 µM) was -5.66%, the “CXCL1 % reduction” value (0.3 µM) was -5% and the “CXCL2 % reduction” value (0.3 µM) was 1.16%. For the same compound, the “MMP9 % reduction” value (0.3 µM) was -0.427%, the “CCl2, Mean” value (0.3 µM) was 1335 pg/mL and the “CXCL1, Mean” value (0.3 µM) was 6237 pg/mL. For the same compound, the “CXCL2, Mean” value (0.3 µM) was 4999 pg/mL, the “MMP9, Mean” value (0.3 µM) was 3002 pg/mL and the “CCl2, individual value” (0.3 µM) was 1355 pg/mL and 1316 pg/mL. The “CXCL1, individual value” (0.3 µM) was 6416 pg/mL and 6058 pg/mL, the “CXCL2, individual value” (0.3 µM) was 4805 pg/mL and 5194 pg/mL and the “MMP9, individual value” (0.3 µM) was 2940 pg/mL and 3064 pg/mL. The “CCl2, % reduction” value (1 µM) was -3.46%, the “CXCL2 % reduction” value (1 µM) was 5.46% and the “MMP9 % reduction” value (1 µM) was 0.166%. For the same compound, the “CCl2, Mean” value (1 µM) was 1309 pg/mL, the “CXCL1, Mean” value (1 µM) was 6015 pg/mL and the “CXCL2, Mean” value (1 µM) was 4782 pg/mL. The “MMP9, Mean” value (1 µM) was 2992 pg/mL, the “CCl2, individual value” (1 µM) was 1330 pg/mL and 1287 pg/mL and the “CXCL1, individual value” (1 µM) was 6000 pg/mL and 6030 pg/mL. For the same compound, the “CXCL2, individual value” (1 µM) was 4905 pg/mL and 4659 pg/mL, the “MMP9, individual value” (1 µM) was 2945 pg/mL and the “CCl2, % reduction” value (3 µM) was -21%. The “CXCL1 % reduction” value (3 µM) was -11%, the “CXCL2 % reduction” value (3 µM) was -6% and the “MMP9 % reduction” value (3 µM) was -3.25%. For the same compound, the “CCl2, Mean” value (3 µM) was 1528 pg/mL, the “CXCL1, Mean” value (3 µM) was 6579 pg/mL and the “CXCL2, Mean” value (3 µM) was 5371 pg/mL. For the same compound, the “MMP9, Mean” value (3 µM) was 3048 pg/mL, the “CCl2, individual value” (3 µM) was 1488 pg/mL and 1567 pg/mL and the “CXCL1, individual value” (3 µM) was 6461 pg/mL and 6697 pg/mL. The “CXCL2, individual value” (3 µM) was 5747 pg/mL and 4996 pg/mL, the “MMP9, individual value” (3 µM) was 3040 pg/mL and 3056 pg/mL and the “CCl2, % reduction” value (10 µM) was -56%. For the same compound, the “CXCL1 % reduction” value (10 µM) was -10%, the “CXCL2 % reduction” value (10 µM) was 2% and the “MMP9 % reduction” value (10 µM) was 7.45%. For the same compound, the “CCl2, Mean” value (10 µM) was 1950 pg/mL, the “CXCL1, Mean” value (10 µM) was 6547 pg/mL and the “CXCL2, Mean” value (10 µM) was 4953 pg/mL. For the same compound, the “MMP9, Mean” value (10 µM) was 2874 pg/mL, the “CCl2, individual value” (10 µM) was 1899 pg/mL and 2002 pg/mL and the “CXCL1, individual value” (10 µM) was 6457 pg/mL and 6637 pg/mL. For the same compound, the “CXCL2, individual value” (10 µM) was 4894 pg/mL and 5012 pg/mL, the “MMP9, individual value” (10 µM) was 2884 pg/mL and 2864 pg/mL and the “CCl2, % reduction” value (30 µM) was -138%. For the same compound, the “CXCL1 % reduction” value (30 µM) was 8%, the “CXCL2 % reduction” value (30 µM) was 10% and the “MMP9 % reduction” value (30 µM) was 5%. For the same compound, the “CCl2, Mean” value (30 µM) was 2956 pg/mL, the “CXCL1, Mean” value (30 µM) was 5474 pg/mL and the “CXCL2, Mean” value (30 µM) was 4573 pg/mL. The “MMP9, Mean” value (30 µM) was 2917 pg/mL, the “CCl2, individual value” (30 µM) was 3047 pg/mL and 2865 pg/mL and the “CXCL1, individual value” (30 µM) was 5594 pg/mL and 5354 pg/mL. For the same compound, the “CXCL2, individual value” (30 µM) was 4609 pg/mL and 4537 pg/mL, the “MMP9, individual value” (30 µM) was 2925 pg/mL and 2908 pg/mL and the “CCl2, % reduction” value (100 µM) was -63%. The “CXCL1 % reduction” value (100 µM) was 55%, the “CXCL2 % reduction” value (100 µM) was 16% and the “CCl2, Mean” value (100 µM) was 2038 pg/mL. The “CXCL1, Mean” value (100 µM) was 2693 pg/mL, the “CXCL2, Mean” value (100 µM) was 4264 pg/mL and the “MMP9, Mean” value (100 µM) was 2975 pg/mL. The “CCl2, individual value” (100 µM) was 1970 pg/mL and 2105 pg/mL, the “CXCL1, individual value” (100 µM) was 2693 pg/mL and the “CXCL2, individual value” (100 µM) was 4200 pg/mL and 4328 pg/mL. The “MMP9, individual value” (100 µM) was 2977 pg/mL and 2972 pg/mL, the GM-CSF % reduction [1] was 1.46% and the “GM-CSF [pg/mL], Mean” value [1] was 648 pg/mL. The “GM-CSF [pg/mL], individual value” [1] was 664 pg/mL and 632 pg/mL, the IL-1β % reduction [1] was 4.49% and the “IL-1β [pg/mL], Mean” value [1] was 12211 pg/mL. The “IL-1β [pg/mL], individual value” [1] was 11901 pg/mL, the IL-6 % reduction [1] was -0.732% and the “IL-6 [pg/mL], Mean” value [1] was 35164 pg/mL. The “IL-6 [pg/mL], individual value” [1] was 34554 pg/mL and 35775 pg/mL, the IL-8 % reduction [1] was -1.46% and the “IL-8 [pg/mL], Mean” value [1] was 3019 pg/mL. The “IL-8 [pg/mL], individual value” [1] was 3072 pg/mL and 2966 pg/mL and the TNF-α % reduction [1] was -24%.
